Results as given in US7863315B2, “2-indolinone derivatives as selective histone deacetylase inhibitors” (Shenzhen Chipscreen Biosciences, Ltd., priority 2008, dated 2011).

Tests used:
Format in all cases: cell-based
[1] = test system: HDAC7 (Nur77 reporter gene); experiment: HDAC subtype reporter gene assay, Nur77-promoter luciferase in HeLa cells; conditions: Homo sapiens, M-HeLa, read-out: % of SAHA Response for HDAC7 at 10 μM (Nur77 reporter gene), 24 hours
Experimental: (§1) Measurement of inhibition of HDAC subtypes activity in cells by reporter gene assay: HDAC subtype selectivity inhibition assay of tested compounds was carried out by several reporter gene assays experiments. Briefly, HeLa cells were seeded in 96-well plates the day before transfection to give a confluence of 50-80%. Cells were transfected with one of reporter gene plasmids containing a promoter sequences or response elements upstream of a luciferase gene construct using FuGene6 transfection reagent according to the manufacturer's instructions (Roche). The promoters or response elements including p21-promoter, gdf11-promoter, MEF-binding element (MEF2), Nur77-promoter were fused upstream to the luciferase gene reporter construct. For normalizing the transfection efficiency, a GFP expression plasmid was cotransfected. Cells were allowed to express protein for 24 hours followed by addition of individual compounds or the vehicle (DMSO). 24 hours later, the cells were harvested and the luciferase assays were performed using the luciferase assay kit according to the manufacturer's instructions (Promega). To normalize the data from the luciferase assays, GFP activity from transfected cells was measured in a microtiter-plate reading fluorimeter capable of excitation at a wavelength at 485 nm and detection of emitted light at 527 nm.

[2] = test system: HDAC3 (gdf11 reporter gene); experiment: HDAC subtype reporter gene assay, gdf11-promoter luciferase in HeLa cells; conditions: Homo sapiens, M-HeLa, read-out: % of SAHA Response for HDAC3 at 10 μM (gdf11 reporter gene), 24 hours
Experimental: as §1

[3] = molecular target: T1, HDAC6 (α-tubulin acetylation) (Homo sapiens, UniProt Q9UBN7); experiment: ELISA assay of acetylation of α-tubulin in HeLa cells; conditions: M-HeLa, 24 hours
T1 construct: endogenous in cells; host or cells: HeLa
T1 sequence (Q9UBN7 1-1215): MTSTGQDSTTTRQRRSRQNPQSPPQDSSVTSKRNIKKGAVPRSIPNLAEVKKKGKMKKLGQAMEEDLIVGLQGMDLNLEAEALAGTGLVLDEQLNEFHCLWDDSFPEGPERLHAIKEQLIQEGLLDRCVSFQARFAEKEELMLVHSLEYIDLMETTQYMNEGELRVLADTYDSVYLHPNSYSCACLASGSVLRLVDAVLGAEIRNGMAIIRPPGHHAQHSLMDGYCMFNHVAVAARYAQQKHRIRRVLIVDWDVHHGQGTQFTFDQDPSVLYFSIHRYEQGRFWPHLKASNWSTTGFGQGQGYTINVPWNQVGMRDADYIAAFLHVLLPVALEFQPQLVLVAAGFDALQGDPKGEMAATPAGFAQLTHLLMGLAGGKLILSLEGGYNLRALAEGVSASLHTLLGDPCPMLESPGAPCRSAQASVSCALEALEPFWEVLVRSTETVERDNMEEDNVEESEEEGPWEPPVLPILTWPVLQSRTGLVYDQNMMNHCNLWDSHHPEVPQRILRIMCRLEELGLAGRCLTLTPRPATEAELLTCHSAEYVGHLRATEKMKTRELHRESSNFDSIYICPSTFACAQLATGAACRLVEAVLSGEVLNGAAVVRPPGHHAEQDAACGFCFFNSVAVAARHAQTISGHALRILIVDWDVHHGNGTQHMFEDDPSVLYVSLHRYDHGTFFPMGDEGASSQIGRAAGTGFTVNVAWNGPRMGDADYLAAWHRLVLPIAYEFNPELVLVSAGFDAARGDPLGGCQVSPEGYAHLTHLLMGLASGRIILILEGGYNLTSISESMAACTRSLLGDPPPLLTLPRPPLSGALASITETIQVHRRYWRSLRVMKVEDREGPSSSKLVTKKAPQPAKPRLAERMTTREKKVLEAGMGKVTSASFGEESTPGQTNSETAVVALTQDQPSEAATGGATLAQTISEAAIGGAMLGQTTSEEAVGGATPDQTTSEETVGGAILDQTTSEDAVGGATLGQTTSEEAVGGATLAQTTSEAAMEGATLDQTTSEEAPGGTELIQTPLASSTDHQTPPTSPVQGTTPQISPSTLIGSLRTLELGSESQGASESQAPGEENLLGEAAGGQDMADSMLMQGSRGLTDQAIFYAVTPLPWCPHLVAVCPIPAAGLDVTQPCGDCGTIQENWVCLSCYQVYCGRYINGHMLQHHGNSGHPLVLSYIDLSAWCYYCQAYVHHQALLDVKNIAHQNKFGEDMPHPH
Experimental: Measurement of acetylation activity in cells on substrates:
ELISA assay of acetylation of α-tubulin
This assay is used to measure in vivo inhibition of HDAC6 in a cytoblot assay. Materials and Reagent: • 1. 24-well tissue culture • 2. DMEM Medium containing 10% FBS • 3. 96-well white plate • 4. HeLa cell line • 5. M-PER Mammalian Protein Extraction Reagent (Pierce) • 6. Bradford assay reagent • 7. Anti-acetyl-tubulin (Upstate) • 8. HRP-labeled anti-mouse IgG (Upstate) • 9. Coating Buffer: 15 mM Na2CO3, 35 mM NaHCO3 (pH 9.6) • 10. 10×PBS: 0.58 M Na2HPO4, 0.17M NaH2PO4, 0.68M NaCl (pH 7.4) • 11. Wash Buffer:1×PBS containing 0.05% Tween-20 (PBST) • 12. Blocking Buffer:10 mg/ml bocine serum albumin (BSA) in PBS • 13. Antibody Dilution Buffer: 5 mg/ml BSA in PBST • 14. Enhanced chemiluminescence (ECL) (Amersham)
Procedure for performing the assay in 96-well plate: • 1. HeLa cells were seeded at a density of 60000 cells/500 μl/well in 24-well plate and incubated at 37° C. for 24 hours. • 2. Compounds were added and incubated for 24 hours at 37° C. • 3. Culture medium was removed, then washes the cells twice with ice-cold PBS. • 4. Add 100 μl/well of Protein Extraction Reagent and gently shake the mixture for 5 minutes. • 5. Collect the lysate to a 96-well plate respectively. Determine the concentration of protein by Bradford assay. • 6. Coat the wells of a 96-well white plate with 100 μl/well of 2.5 μg whole cell protein in Coating Buffer by incubating overnight at 4° C. • 7. Discard the uncoated proteins and wash the coated wells three times with 200 μl/well of PBST. • 8. Block coated wells by incubating the plate with 200 μl/well of Blocking Buffer for 1 hour at 37° C. • 9. Wells were aspirated and washed three times with 200 μl/well of PBST. • 10. After aspirating, 50 μl/well of Antibody Dilution Buffer containing anti-Ac-tubulin (1:1000) were added to each well and incubated for 2 hour at 37° C. • 11. Wells were aspirated and washed three times with 200 μl/well of PBST. • 12. 50 μl/well of Antibody Dilution Buffer containing HRP-labeled anti-mouse IgG (1:2000) were added to each well and incubated for 2 hour at 37° C. • 13. Wells were aspirated and washed three times with 200 μl/well of PBST. • 14. Wells were washed three times with 200 μl/well of purified water. • 15. Add 50 μl/well of ECL mixture, then read the plates on the plate reader.

What does the source list for `Cc1[nH]c(/C=N/N=C2\C(=O)Nc3ccc(F)cc32)c(C)c1C(=O)NCCCCC(=O)Nc1ccccc1N` [Example 7, 5-(5-(((5-fluoro-2-oxoindolin-3-ylidene)hydrazono)methyl)-2,4-dimethyl-1H-pyrrole-3-carboxamido)-N-(2-aminophenyl)pentanamide]?
Emax at 10 µM [1]: 3%; Emax at 10 µM [2]: 7%; fold induction at 10 µM [3]: 1.03

How did the Emax at 10 µM [1] turn out when `Cc1[nH]c(/C=N/N=C2\C(=O)Nc3ccc(F)cc32)c(C)c1C(=O)NCCCCC(=O)Nc1ccc(F)cc1N` [Example 8, 5-(5-(((5-fluoro-2-oxoindolin-3-ylidene)hydrazono)methyl)-2,4-dimethyl-1H-pyrrole-3-carboxamido)-N-(2-amino-4-fluorophenyl)pentanamide] was run?
Its Emax at 10 µM is 4%.

And the Emax at 10 µM [2]?
The Emax at 10 µM was 5%.

And the fold induction at 10 µM [3]?
The fold induction at 10 µM was 1.76.

What does the source list for `Cc1[nH]c(/C=N/N=C2\C(=O)Nc3ccc(F)cc32)c(C)c1C(=O)NCCCCCC(=O)NO` [Example 11, 6-(5-(((5-fluoro-2-oxoindolin-3-ylidene)hydrazono)methyl)-2,4-dimethyl-1H-pyrrole-3-carboxamido)-N-hydroxyhexanamide]?
Emax at 10 µM [1]: 9%; Emax at 10 µM [2]: 49%; fold induction at 10 µM [3]: 2.17

For `Cc1[nH]c(/C=N/N=C2\C(=O)Nc3ccc(F)cc32)c(C)c1C(=O)NCCCCCC(=O)Nc1ccc(F)cc1N` [Example 12, 6-(5-(((5-fluoro-2-oxoindolin-3-ylidene)hydrazono)methyl)-2,4-dimethyl-1H-pyrrole-3-carboxamido)-N-(2-amino-4-fluorophenyl)hexanamide], which Emax at 10 µM [1] is on record?
Its Emax at 10 µM is 6%.

And the Emax at 10 µM [2]?
The Emax at 10 µM was 6%.

And the fold induction at 10 µM [3]?
Its fold induction at 10 µM is 2.04.

`Cc1[nH]c(/C=N/N=C2\C(=O)Nc3ccc(F)cc32)c(C)c1C(=O)NCCCCCC(=O)Nc1ccccc1N` [Example 13, 6-(5-(((5-fluoro-2-oxoindolin-3-ylidene)hydrazono)methyl)-2,4-dimethyl-1H-pyrrole-3-carboxamido)-N-(2-aminophenyl)hexanamide] was tested. Which Emax at 10 µM [1] did it give?
Its Emax at 10 µM is 5%.

And the Emax at 10 µM [2]?
Its Emax at 10 µM is 13%.

What about the fold induction at 10 µM [3] of the same compound?
The fold induction at 10 µM was 2.73.

`Cc1[nH]c(/C=N/N=C2\C(=O)Nc3ccc(F)cc32)c(C)c1C(=O)NCCCCCCCC(=O)NO` [Example 26, 8-(5-(((5-fluoro-2-oxoindolin-3-ylidene)hydrazono)methyl)-2,4-dimethyl-1H-pyrrole-3-carboxamido)-N-hydroxyoctanamide] was tested. Which Emax at 10 µM [1] did it give?
The Emax at 10 µM was 11%.

What about the Emax at 10 µM [2] of the same compound?
The Emax at 10 µM was 38%.

What about the fold induction at 10 µM [3] of the same compound?
The fold induction at 10 µM was 1.85.

What does the source list for `Cc1[nH]c(/C=N/N=C2\C(=O)Nc3ccc(F)cc32)c(C)c1C(=O)NCCCCCCCC(=O)Nc1ccc(F)cc1N` [Example 27, 8-(5-(((5-fluoro-2-oxoindolin-3-ylidene)hydrazono)methyl)-2,4-dimethyl-1H-pyrrole-3-carboxamido)-N-(2-amino-4-fluorophenyl)octanamide]?
Emax at 10 µM [1]: 6%; Emax at 10 µM [2]: 6%; fold induction at 10 µM [3]: 1.64

How did the Emax at 10 µM [1] turn out when `Cc1[nH]c(/C=N/N=C2\C(=O)Nc3ccc(F)cc32)c(C)c1C(=O)NCCCCCCCC(=O)Nc1ccccc1N` [Example 28, 8-(5-(((5-fluoro-2-oxoindolin-3-ylidene)hydrazono)methyl)-2,4-dimethyl-1H-pyrrole-3-carboxamido)-N-(2-aminophenyl)octanamide] was run?
The Emax at 10 µM was 16%.

What about the Emax at 10 µM [2] of the same compound?
Its Emax at 10 µM is 26%.

What about the fold induction at 10 µM [3] of the same compound?
The fold induction at 10 µM was 1.74.

Which results are given for `O=C(CCCCCNC(=O)c1ccc(/C=N/N=C2\C(=O)Nc3ccc(F)cc32)cc1)NO` [Example 31, 6-(4-(((5-fluoro-2-oxoindolin-3-ylidene)hydrazono)methyl)benzamido)-N-hydroxyhexanamide]?
Emax at 10 µM [1]: 8%; Emax at 10 µM [2]: 36%; fold induction at 10 µM [3]: 1.88

What does the source list for `Nc1ccccc1NC(=O)CCCCCNC(=O)c1ccc(/C=N/N=C2\C(=O)Nc3ccc(F)cc32)cc1` [Example 32, 6-(4-(((5-fluoro-2-oxoindolin-3-ylidene)hydrazono)methyl)benzamido)-N-(2-aminophenyl)hexanamide]?
Emax at 10 µM [1]: 5%; Emax at 10 µM [2]: 12%; fold induction at 10 µM [3]: 2.59

`Nc1ccccc1NC(=O)CCCCCCCNC(=O)c1ccc(/C=N/N=C2\C(=O)Nc3ccc(F)cc32)cc1` [Example 35, 8-(4-(((5-fluoro-2-oxoindolin-3-ylidene)hydrazono)methyl)benzamido)-N-(2-aminophenyl)octanamide] was tested. Which Emax at 10 µM [1] did it give?
Its Emax at 10 µM is 13%.

What about the Emax at 10 µM [2] of the same compound?
The Emax at 10 µM was 36%.

What about the fold induction at 10 µM [3] of the same compound?
The fold induction at 10 µM was 1.39.

How did the Emax at 10 µM [1] turn out when `Nc1cc(F)ccc1NC(=O)CCCCCCCNC(=O)c1ccc(/C=N/N=C2\C(=O)Nc3ccc(F)cc32)cc1` [Example 36, 8-(4-(((5-fluoro-2-oxoindolin-3-ylidene)hydrazono)methyl)benzamido)-N-(2-amino-4-fluorophenyl)octanamide] was run?
Its Emax at 10 µM is 7%.

What about the Emax at 10 µM [2] of the same compound?
The Emax at 10 µM was 6%.

What about the fold induction at 10 µM [3] of the same compound?
The fold induction at 10 µM was 1.57.

`Nc1ccccc1NC(=O)CCCCCNC(=O)c1ccc(/C=C2\C(=O)Nc3ccc(F)cc32)cc1` [Example 39, 6-(4-((5-fluoro-2-oxoindolin-3-ylidene)methyl)benzamido)-N-(2-aminophenyl)hexanamide] was tested. Which Emax at 10 µM [1] did it give?
The Emax at 10 µM was 29%.

And the Emax at 10 µM [2]?
The Emax at 10 µM was 41%.

And the fold induction at 10 µM [3]?
The fold induction at 10 µM was 0.93.

What does the source list for `Nc1cc(F)ccc1NC(=O)CCCCCNC(=O)c1ccc(/C=C2\C(=O)Nc3ccc(F)cc32)cc1` [Example 40, 6-(4-((5-fluoro-2-oxoindolin-3-ylidene)methyl)benzamido)-N-(2-amino-4-fluorophenyl)hexanamide]?
Emax at 10 µM [1]: 9%; Emax at 10 µM [2]: 13%; fold induction at 10 µM [3]: 1.04
